Like-named read-outs stand apart in the source and are kept apart here.

We go through two compounds from patent US20260083767A1, “SOLID DOSAGE FORM OF A SMALL MOLECULE ANTIVIRAL AND USES THEREOF” (Merck Sharp & Dohme LLC, priority 2022, published 2026).

Series [1] in a line: Aqueous solubility and wettability of Compound A. The format is physicochemical. From the text: As the levels of Compound A increases in the formulation, the flow properties of the pre-roller compaction powder blend worsens due to the cohesive nature of the material. […] As the levels of Compound A increases in the formulation, the property of the powder blend is dominated by the properties of Compound A, resulting in poor wettability, dispersibility and uniformity in water. Accordingly, the proportion of Compound A in the formulations having desirable properties is limited.

For series [2] the following is noted: species not stated; cited from earlier work.
For series [3] the following is noted: non-human primates; cited from earlier work.

`CC(C)C(=O)OC[C@H]1O[C@@H](n2ccc(NO)nc2=O)[C@H](O)[C@@H]1O` [Compound A, {(2R,3S,4R,5R)-3,4-dihydroxy-5-[4-(hydroxyimino)-2-oxo-3,4-dihydropyrimidin-1 (2H)-yl]oxolan-2-yl}methyl 2-methylpropanoate]: the aqueous solubility entry in series [1] is “good”. The “wettability in aqueous media” value in series [1] (aqueous media) was “poor”. Besides, the oral bioavailability result in series [2] is “orally bioavailable”.
In the case of `O=c1nc(NO)ccn1[C@@H]1O[C@H](CO)[C@@H](O)[C@H]1O` [NHC, 1-((2R,3R,4S,5R)-3,4-dihydroxy-5-(hydroxymethyl)tetrahydrofuran-2-yl)-4-(hydroxyamino)pyrimidin-2 (1H)-one], the oral bioavailability result in series [3] is given as “limited”.
